# From patent EP4585599A1, “NITROGEN-CONTAINING FUSED RING COMPOUND, INTERMEDIATE THEREOF, PREPARATION METHOD THEREFOR AND USE THEREOF” (Hangzhou Synrx Therapeutics Biomedical Technology Co., Ltd., priority 2022, dated 2024)
# Values joined by “and” are separate entries in the source; they are usually repeats but may differ in a detail not shown here. Equal values may be shown once. Read-outs that look alike come from different tables or passages of the source.
# Columns and labels:
# [1] = cells; conditions: Homo sapiens, DLD-1, 240 h
# [2] = target: T1, helicase domain of the Pol θ protein (Homo sapiens, UniProt O75417); test: Biochemical Activity Assay (ADP Glo Assay) of Pol θ inhibitor, ATPase activity
# T1 construct: The helicase domain of the Pol θ protein was purified from insect protein expression system; made in house; host or cells: insect protein expression system
# T1 sequence (O75417 102-554 limits assumed): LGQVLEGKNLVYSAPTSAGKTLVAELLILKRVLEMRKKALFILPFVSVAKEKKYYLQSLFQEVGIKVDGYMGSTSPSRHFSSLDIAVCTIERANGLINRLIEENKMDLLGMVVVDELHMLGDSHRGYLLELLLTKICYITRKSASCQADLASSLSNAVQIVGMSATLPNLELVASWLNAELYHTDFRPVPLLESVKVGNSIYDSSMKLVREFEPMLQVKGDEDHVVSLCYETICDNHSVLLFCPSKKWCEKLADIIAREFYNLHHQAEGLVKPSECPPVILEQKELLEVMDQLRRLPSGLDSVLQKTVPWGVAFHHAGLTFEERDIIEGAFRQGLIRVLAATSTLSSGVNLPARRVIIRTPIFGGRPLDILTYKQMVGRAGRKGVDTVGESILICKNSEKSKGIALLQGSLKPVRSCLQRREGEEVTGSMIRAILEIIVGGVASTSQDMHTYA
# [3] = read-out: Cell viability assay IC50 (nM), CTG assay, CellTiter Glo, read on Day 10, cell line not given
# [4] = ADP-Glo assay, ATPase activity of Pol θ helicase domain, ssDNA substrate, read-out: Biochemical assay IC50
# [5] = read-out: Cell viability assay IC50 (nM), CTG on Day 10, cell line not given (method: DLD1 and DLD1^-/- cells)
# [6] = ADP-Glo, ssDNA substrate, 60 min at room temperature, read-out: Biochemical assay IC50
# [7] = read-out: Biochemical assay IC50
structure (smiles),measurement,setting,value
COc1cnc(C(F)F)cc1-c1cc(C)ncc1C(=O)Nc1nc2ccc(-c3c(C)nnn3C)cc2s1 [Example 223],IC50,[1]; [3],10 nM
same,IC50,[2]; [4],2.51 nM
COc1cnc(Cl)cc1-c1cc(C)ncc1C(=O)Nc1nc2ncc(C3=CCC(O)CC3)nc2s1 (centres unmarked) [Example 12],IC50,[1]; [3],15.3 nM
same,IC50,[1]; [5],< 100 nM
same,IC50,[2]; [4],2.41 nM
same,IC50,[2]; [6],< 50 nM
COc1cnc(Cl)cc1-c1cc(C)ncc1C(=O)Nc1nc2ccc(N3CC[C@H](O)C[C@H]3C)nc2s1 [Example 136],IC50,[1]; [3],121 nM
same,IC50,[2]; [4],25.8 nM
"[2H]C1(O)CC=C(c2cc3sc(NC(=O)c4cnc(C)cc4-c4cc(Cl)ncc4OC)nc3cn2)CC1 (centres unmarked) [Example 111, 2'-chloro-N-(6-(4-hydroxycyclohex-1-en-1-yl-4-d)thiazolo[4,5-c]pyridin-2-yl)-5'-methox y-6-methyl-[4,4'-bipyridine]-3-carboxamide]",IC50,[1]; [3],13.1 nM
same,IC50,[1]; [5],< 100 nM
same,IC50,[2]; [4],3.78 nM
same,IC50,[2]; [6],< 50 nM
"[2H]C([2H])([2H])Oc1cnc(Cl)cc1-c1cc(C([2H])([2H])[2H])ncc1C(=O)Nc1nc2cnc(-c3c(C)nnn3C)c(F)c2s1 [Example 231, 2'-chloro-N-(6-(1,4-dimethyl-1H-1,2,3-triazol-5-yl)-7-fluorothiazolo[4,5-c]pyridin-2-yl)-5'-(methoxy-d3)-6-(methyl-d3)-[4,4'-bipyridine]-3-carboxamide]",IC50,[2]; [4],3.08 nM
COc1cnc(Cl)cc1-c1cc(C)ncc1C(=O)Nc1nc2ccc(-c3c(C)cnn3C)nc2s1 [Example 80],IC50,[1]; [3],30.3 nM
same,IC50,[1]; [5],< 100 nM
same,IC50,[2]; [4],9.12 nM
same,IC50,[2]; [6],< 50 nM
"COc1cnc(Cl)cc1-c1cc(C)ncc1C(=O)Nc1nc2cnc(C3=CC[C@@H](O)CC3)cc2s1 [Example 115, (S) -2'-chloro-N-(6-(4-hydroxycyclohex-1-en-1-yl)thiazolo[4,5-c]pyridin-2-yl)-5'-methoxy-6-methyl-[4,4'-bipyridine]-3-c arboxamide]",IC50,[1]; [3],2.61 nM
same,IC50,[1]; [5],< 100 nM
same,IC50,[2]; [4],3.21 nM
same,IC50,[2]; [6],< 50 nM
"COc1cnc(Cl)cc1-c1cc(C)ncc1C(=O)Nc1nc2cnc(C3=CC[C@H](O)CC3)cc2s1 [Example 114, (R)-2'-chloro-N-(6-(4-hydroxycyclohex-1-en-1-yl)thiazolo[4,5-c]pyridin-2-yl)-5'-methoxy-6-methyl-[4.4'-bipyridine]-3-carboxamide]",IC50,[2]; Biochemical assay IC50 (nM),< 50 nM and 3.98 nM
"[2H]C1(O)CCN(c2ccc3nc(NC(=O)c4cnc(C)cc4-c4cc(Cl)ncc4OC)sc3n2)CC1 [Example 112, 2'-chloro-N-(5-(4-hydroxypiperidin-1-yl-4-deuterium)thiazol[5,4-b]pyridin-2-yl)-5'-met hoxy-6-methyl-[4,4'-bipyridine]-3-carboxamide]",IC50,"[2]; Biochemical assay IC50 (nM), ADP-Glo assay, ATPase activity of Pol θ helicase domain, ssDNA substrate",10 nM
COc1cnc(Cl)cc1-c1cc(C)ncc1C(=O)Nc1nc2cnc(-c3c(F)cnn3CCO)cc2s1 [Example 168],IC50,[1]; [3],4.46 nM
"[2H]C([2H])([2H])Oc1cnc(Cl)cc1-c1cc(C)ncc1C(=O)Nc1nc2cnc(-c3c(C)nnn3C)c(F)c2s1 [Example 230, 2'-chloro-N-(6-(1,4-dimethyl-1H-1,2,3-triazol-5-yl)-7-fluorothiazolo[4,5-c]pyridin-2-yl)-5'-(methoxy-d3)-6-methyl-[4,4'-bipyridine]-3-carboxamide]",IC50,[2]; [4],2.84 nM
"COc1cnc(Cl)c(F)c1-c1cc(C)ncc1C(=O)Nc1nc2c(s1)CN(CC1CCOC1)CC2 (centres unmarked) [Example 40, 2'-chloro-3'-fluoro-5'-methoxy-6-methyl-N-(5-((tetrahydrofuran-3-yl)methyl)-4,5,6,7-hexahydrothiazolo[5,4-c]pyridin-2-yl)-[4,4'-bipyridine]-3-carboxamide]",IC50,[2]; Biochemical assay IC50 (nM),50 to 200 nM and 14.9 nM
"COc1cnc(Cl)cc1-c1cc(C)ncc1C(=O)Nc1nc2cnc(-c3c(C)nnn3C)c(C)c2s1 [Example 233, 2'-chloro-N-(6-(1,4-dimethyl-1H-1,2,3-triazol-5-yl)-7-methylthiazolo[4,5-c]pyridin-2-yl) -5'-methoxy-6-methyl-[4,4'-bipyridine]-3-carboxamide]",IC50,[2]; [4],8.58 nM
"COc1cnc(Cl)cc1-c1cc(C)ncc1C(=O)Nc1nc2ccc(-c3ccc(Cl)cn3)nc2s1 [Example 44, 2'-chloro-N-(5-(5-chloropyridin-2-yl)thiazol[5,4-b]pyridin-2-yl)-5'-methoxy-6-methyl-[4, 4'-bipyridine]-3-carboxamide]",IC50,[2]; Biochemical assay IC50 (nM),< 50 nM and 5.81 nM
"COc1cnc(Cl)c(F)c1-c1cc(C)ncc1C(=O)Nc1nc2cccnc2s1 [Example 38, 2'-chloro-3'-fluoro-5'-methoxy-6-methyl-N-(thiazol[5,4-b]pyridin-2-yl)-[4,4'-bipyridine]-3-carboxamide]",IC50,[2]; Biochemical assay IC50 (nM),< 50 nM and 17.3 nM
"COc1cnc(Cl)cc1-c1cc(C)ncc1C(=O)Nc1nc2ccc(C3=CCC(O)CC3)nc2s1 (centres unmarked) [Example 1, 2'-chloro-N-(5-(4-hydroxycyclohex-1-en-1-yl)thiazol[5,4-b]pyridin-2-yl)-5'-methoxy-6-methyl-[4,4'-bipyridine]-3-carboxamide]",IC50,[2]; Biochemical assay IC50 (nM),< 50 nM and 7.07 nM
"COc1ccccc1-c1cnncc1C(=O)Nc1nc2ccc(-c3ccn[nH]3)nc2s1 [Comparative Example 2, reference compound]",IC50,[2]; [4],307 nM
COc1cnc(C(F)F)cc1-c1cc(C)ncc1C(=O)Nc1nc2cnc(-c3c(F)cnn3C)cc2s1 [Example 173],IC50,[2]; [4],2.93 nM
"COc1cnc(Cl)cc1-c1cc(C)ncc1C(=O)Nc1nc2cnc(-c3c(C)nnn3C)c(OC)c2s1 [Example 229, 2'-chloro-N-(6-(1,4-dimethyl-1H-1,2,3-triazol-5-yl)-7-methoxythiazolo[4,5-c]pyridin-2-yl)-5'-methoxy-6-methyl-[4,4'-bipyridine]-3-carboxamide]",IC50,[2]; [4],36.7 nM
"COc1cnc(Cl)cc1-c1cc(C)ncc1C(=O)Nc1nc2cnc(-c3ncon3)cc2s1 [Example 181, N-(6-(1,2,4-oxadiazol-3-yl)thiazolo[4,5-c]pyridin-2-yl)-2'-chloro-5'-methoxy-6-methyl-[4,4'-bipyridine]-3-carboxamide]",IC50,[2]; [4],6.71 nM
"COc1cnc(Cl)cc1-c1cc(C)ncc1C(=O)Nc1nc2c(s1)CN(c1ccc(Cl)cn1)CC2 [Example 92, 2'-chloro-N-(5-(5-chloropyridin-2-yl)-4,5,6,7-tetrahydrothiazol[5,4-c]pyridin-2-)-5'-methoxy-6-methyl-[4,4'-bipyridine]-3-carboxamide]",IC50,[2]; Biochemical assay IC50 (nM),50 to 200 nM and 59.9 nM
COc1cnc(C(F)F)cc1-c1cc(N2CCN(C)C3(CC3)C2=O)ncc1C(=O)Nc1nc2cnc(-c3c(C)nnn3C)cc2s1 [Example 197],IC50,[2]; [7],8.57 nM
"COc1cnc(Cl)cc1-c1cc(C)ncc1C(=O)Nc1nc2ccc(N3CCN(C)CC3)nc2s1 [Example 43, 2'-chloro-5'-methoxy-6-methyl-N-(5-(4-methylpiperazin-1-yl)thiazol[5,4-b]pyridin-2-yl)-[4,4'-bipyridine]-3-carboxamide]",IC50,[2]; Biochemical assay IC50 (nM),50 to 200 nM and 51.9 nM
"COc1cnc(Cl)cc1-c1cc(C)ncc1C(=O)Nc1nc2cnc(-c3c(C)nnn3C)c(C#N)c2s1 [Example 228, 2'-chloro-N-(7-cyano-6-(1,4-dimethyl-1H-1,2,3-triazol-5-yl)thiazolo[4,5-c]pyridin-2-yl)-5'-methoxy-6-methyl-[4,4'-bipyridine]-3-carboxamide]",IC50,[2]; [4],111 nM
COc1cnc(C(F)F)cc1-c1cc(C)ncc1C(=O)Nc1nc2cnc(-c3c(C)cnn3C)cc2s1 [Example 174],IC50,[2]; [4],2.93 nM
COc1cnc(Cl)cc1-c1cc(C)ncc1C(=O)Nc1nc2nc(F)c(-c3c(C)nnn3C)cc2s1 [Example 232],IC50,[2]; [7],2.51 nM
COc1cnc(Cl)cc1-c1cc(C)ncc1C(=O)Nc1nc2c(C(=O)O)cc(-c3c(C)cnn3C)cc2s1 [Example 164],IC50,[2]; [4],8.32 nM
